Measurements from patent US8940754B2, “10′-fluorinated Vinca alkaloids provide enhanced biological activity against MDR cancer cells” (priority 2010, dated 2015).
Like-named read-outs stand apart in the source and are kept apart here.

Columns and labels:
Assay in all cases: cells
[1] = test system: HCT116/VM46; type: cell-based, human
[2] = test system: L1210; type: cell-based, mouse
[3] = test system: HCT116; type: cell-based, human
[4] = Homo sapiens, HCT-116/VM46; Table 1A, C16′-modified anhydrovinblastine analogues; read-out: IC50 (nM) HCT116/VM46
[5] = Mus musculus, L1210; Table 1A, C16′-modified anhydrovinblastine analogues; read-out: IC50 (nM) L1210
[6] = Homo sapiens, HCT-116; Table 1A, C16′-modified anhydrovinblastine analogues; read-out: IC50 (nM) HCT116
[7] = Table 2C, side-by-side, multiple examinations with several independent samples; read-out: IC50 (nM) HCT116/VM46
[8] = Table 2C, side-by-side, multiple examinations with several independent samples; read-out: IC50 (nM) L1210
[9] = Homo sapiens, HCT-116/VM46; Table 2A, C10′-substituted anhydrovinblastines, single evaluations; read-out: IC50 (nM) HCT116/VM46
[10] = Mus musculus, L1210; Table 2A, C10′-substituted anhydrovinblastines, single evaluations; read-out: IC50 (nM) L1210
[11] = Homo sapiens, HCT-116; Table 2A, C10′-substituted anhydrovinblastines, single evaluations; read-out: IC50 (nM) HCT116
[12] = Homo sapiens, HCT-116/VM46; read-out: IC50 (nM) HCT116/VM46
[13] = Mus musculus, L1210; read-out: IC50 (nM) L1210
[14] = Homo sapiens, HCT-116; read-out: IC50 (nM) HCT116
[15] = Homo sapiens, HCT-116/VM46; Table 2B, C10′-substituted vinblastines, single evaluations; read-out: IC50 (nM) HCT116/VM46
[16] = Mus musculus, L1210; Table 2B, C10′-substituted vinblastines, single evaluations; read-out: IC50 (nM) L1210
[17] = Homo sapiens, HCT-116; Table 2B, C10′-substituted vinblastines, single evaluations; read-out: IC50 (nM) HCT116

SMILES: CCOC(=O)[C@]1(c2cc3c(cc2OC)N(C)C2C(O)(C(=O)OC)[C@H](OC(C)=O)[C@]4(CC)C=CCN5CC[C@]32[C@@H]54)C[C@@H]2C=C(CC)CN(CCc3c1[nH]c1ccccc31)C2 (stereo partly drawn) [Compound 5a]
- IC50 [1, 4]: 4100 nM
- IC50 [2, 5]: 620 nM
- IC50 [3, 6]: 640 nM

SMILES: CC[C@]1(O)C[C@@H]2CN(CCc3c([nH]c4ccccc34)[C@@](C(=O)OC)(c3cc4c(cc3OC)N(C)[C@H]3[C@@](O)(C(=O)OC)[C@H](OC(C)=O)[C@]5(CC)C=CCN6CC[C@]43[C@@H]65)C2)C1 [Compound 1, Vinblastine, reference compound]
- IC50 ([1]; Table 1B, C16′-modified vinblastine analogues; read-out: IC50 (nM) HCT116/VM46): 600 nM
- IC50 ([1]; Table 2B, C10′-substituted vinblastines, single evaluations; read-out: IC50 (nM) HCT116/VM46): 600 nM
- IC50 [1, 7]: 600 nM
- IC50 ([2]; Table 1B, C16′-modified vinblastine analogues; read-out: IC50 (nM) L1210): 6 nM
- IC50 ([2]; Table 2B, C10′-substituted vinblastines, single evaluations; read-out: IC50 (nM) L1210): 6 nM
- IC50 [2, 8]: 6 nM

SMILES: CCC1=C[C@@H]2CN(CCc3c([nH]c4ccc(I)cc34)[C@@](C(=O)OC)(c3cc4c(cc3OC)N(C)C3C(O)(C(=O)OC)[C@H](OC(C)=O)[C@]5(CC)C=CCN6CC[C@]43[C@@H]65)C2)C1 (stereo partly drawn) [Compound 16a, 10′-iodoanhydrovinblastine]
- IC50 [1, 9]: 1800 nM
- IC50 [2, 10]: 620 nM
- IC50 [3, 11]: 600 nM

SMILES: CCOC(=O)[C@]1(c2cc3c(cc2OC)N(C)C2C(O)(C(=O)OC)[C@H](OC(C)=O)[C@]4(CC)C=CCN5CC[C@]32[C@@H]54)C[C@H]2CN(CCc3c1[nH]c1ccccc31)C[C@](O)(CC)C2 (stereo partly drawn) [Compound 5b]
- IC50 [1, 12]: 830 nM
- IC50 [2, 13]: 60 nM
- IC50 [3, 14]: 70 nM

SMILES: CC[C@]1(O)C[C@@H]2CN(CCc3c([nH]c4ccc(C)cc34)[C@@](C(=O)OC)(c3cc4c(cc3OC)N(C)C3C(O)(C(=O)OC)[C@H](OC(C)=O)[C@]5(CC)C=CCN6CC[C@]43[C@@H]65)C2)C1 (stereo partly drawn) [Compound 21b, 10′-methylvinblastine]
- IC50 [1, 15]: 600 nM
- IC50 [2, 16]: 7.8 nM
- IC50 [3, 17]: 7.8 nM

SMILES: CC[C@]1(O)C[C@@H]2CN(CCc3c([nH]c4ccccc34)[C@@](CO)(c3cc4c(cc3OC)N(C)C3C(O)(C(=O)OC)[C@H](OC(C)=O)[C@]5(CC)C=CCN6CC[C@]43[C@@H]65)C2)C1 (stereo partly drawn) [Compound 11b]
- IC50 [1, 12]: > 10000 nM
- IC50 [2, 13]: 6500 nM
- IC50 [3, 14]: 5800 nM

SMILES: CC[C@]1(O)C[C@@H]2CN(CCc3c([nH]c4ccccc34)[C@@](C#N)(c3cc4c(cc3OC)N(C)C3C(O)(C(=O)OC)[C@H](OC(C)=O)[C@]5(CC)C=CCN6CC[C@]43[C@@H]65)C2)C1 (stereo partly drawn) [Compound 6b]
- IC50 [1, 12]: 7400 nM
- IC50 [2, 13]: 630 nM
- IC50 [3, 14]: 670 nM

SMILES: CC[C@]1(O)C[C@@H]2CN(CCc3c([nH]c4ccc(I)cc34)[C@@](C(=O)OC)(c3cc4c(cc3OC)N(C)C3C(O)(C(=O)OC)[C@H](OC(C)=O)[C@]5(CC)C=CCN6CC[C@]43[C@@H]65)C2)C1 (stereo partly drawn) [Compound 16b, 10′-iodovinblastine]
- IC50 [1, 15]: 840 nM
- IC50 [2, 16]: 55 nM
- IC50 [3, 17]: 60 nM

SMILES: CCC1=C[C@@H]2CN(CCc3c([nH]c4ccc(OC)cc34)[C@@](C(=O)OC)(c3cc4c(cc3OC)N(C)C3C(O)(C(=O)OC)[C@H](OC(C)=O)[C@]5(CC)C=CCN6CC[C@]43[C@@H]65)C2)C1 (stereo partly drawn) [Compound 22a, 10′-methoxyanhydrovinblastine]
- IC50 [1, 9]: 5500 nM
- IC50 [2, 10]: 550 nM
- IC50 [3, 11]: 640 nM

SMILES: CCC1=C[C@@H]2CN(CCc3c([nH]c4ccc(Br)cc34)[C@@](C(=O)OC)(c3cc4c(cc3OC)N(C)C3C(O)(C(=O)OC)[C@H](OC(C)=O)[C@]5(CC)C=CCN6CC[C@]43[C@@H]65)C2)C1 (stereo partly drawn) [Compound 17a, 10′-bromoanhydrovinblastine]
- IC50 [1, 9]: 860 nM
- IC50 [2, 10]: 65 nM
- IC50 [3, 11]: 70 nM

SMILES: CCC1=C[C@@H]2CN(CCc3c([nH]c4ccc(C#N)cc34)[C@@](C(=O)OC)(c3cc4c(cc3OC)N(C)C3C(O)(C(=O)OC)[C@H](OC(C)=O)[C@]5(CC)C=CCN6CC[C@]43[C@@H]65)C2)C1 (stereo partly drawn) [Compound 15a, 10′-cyanoanhydrovinblastine]
- IC50 ([1]; Homo sapiens, HCT-116/VM46, read-out: IC50 (nM) HCT116/VM46): 920 nM
- IC50 ([2]; Mus musculus, L1210, read-out: IC50 (nM) L1210): 65 nM
- IC50 ([3]; Homo sapiens, HCT-116, read-out: IC50 (nM) HCT116): 70 nM

SMILES: CCC1=C[C@@H]2CN(CCc3c([nH]c4ccc(C)cc34)[C@@](C(=O)OC)(c3cc4c(cc3OC)N(C)C3C(O)(C(=O)OC)[C@H](OC(C)=O)[C@]5(CC)C=CCN6CC[C@]43[C@@H]65)C2)C1 (stereo partly drawn) [Compound 21a, 10′-methylanhydrovinblastine]
- IC50 [1, 9]: 640 nM
- IC50 [2, 10]: 65 nM
- IC50 [3, 11]: 65 nM

SMILES: CC[C@]1(O)C[C@@H]2CN(CCc3c([nH]c4ccc(OC)cc34)[C@@](C(=O)OC)(c3cc4c(cc3OC)N(C)C3C(O)(C(=O)OC)[C@H](OC(C)=O)[C@]5(CC)C=CCN6CC[C@]43[C@@H]65)C2)C1 (stereo partly drawn) [Compound 22b, 10′-methoxyvinblastine]
- IC50 [1, 15]: > 10000 nM
- IC50 [2, 16]: 670 nM
- IC50 [3, 17]: 720 nM

SMILES: CC[C@]1(O)C[C@@H]2CN(CCc3c([nH]c4ccc(Br)cc34)[C@@](C(=O)OC)(c3cc4c(cc3OC)N(C)C3C(O)(C(=O)OC)[C@H](OC(C)=O)[C@]5(CC)C=CCN6CC[C@]43[C@@H]65)C2)C1 (stereo partly drawn) [Compound 17b, 10′-bromo-vinblastine]
- IC50 [1, 15]: 270 nM
- IC50 [2, 16]: 8 nM
- IC50 [3, 17]: 8.6 nM

SMILES: CCC1=C[C@@H]2CN(CCc3c([nH]c4ccc(Cl)cc34)[C@@](C(=O)OC)(c3cc4c(cc3OC)N(C)C3C(O)(C(=O)OC)[C@H](OC(C)=O)[C@]5(CC)C=CCN6CC[C@]43[C@@H]65)C2)C1 (stereo partly drawn) [Compound 18a, 10′-chloroanhydrovinblastine]
- IC50 [1, 9]: 800 nM
- IC50 [2, 10]: 60 nM
- IC50 [3, 11]: 70 nM

SMILES: CCC1=C[C@@H]2CN(CCc3c([nH]c4ccccc34)[C@@](C#N)(c3cc4c(cc3OC)N(C)C3C(O)(C(=O)OC)[C@H](OC(C)=O)[C@]5(CC)C=CCN6CC[C@]43[C@@H]65)C2)C1 (stereo partly drawn) [Compound 6a]
- IC50 [1, 4]: 6800 nM
- IC50 [2, 5]: 6500 nM
- IC50 [3, 6]: 6100 nM

SMILES: CC[C@]1(O)C[C@H]2CN(CCc3c([nH]c4ccccc34)[C@@](C(=O)OC)(c3cc4c(cc3OC)N(C=O)[C@H]3[C@@](O)(C(=O)OC)[C@H](OC(C)=O)[C@]5(CC)C=CCN6CC[C@]43[C@@H]65)C2)C1 [Compound 2, Vincristine, reference compound]
- IC50 [1, 7]: 700 nM
- IC50 [2, 8]: 6 nM
- IC50 ([3]; Table 2C, side-by-side, multiple examinations with several independent samples; read-out: IC50 (nM) HCT116): 7 nM

SMILES: CC[C@]1(O)C[C@@H]2CN(CCc3c([nH]c4ccccc34)[C@@](C(N)=O)(c3cc4c(cc3OC)N(C)C3C(O)(C(=O)OC)[C@H](OC(C)=O)[C@]5(CC)C=CCN6CC[C@]43[C@@H]65)C2)C1 (stereo partly drawn) [Compound 7b]
- IC50 [1, 12]: > 10000 nM
- IC50 [2, 13]: > 10000 nM
- IC50 [3, 14]: > 10000 nM

SMILES: CCC1=C[C@@H]2CN(CCc3c([nH]c4ccc(SC)cc34)[C@@](C(=O)OC)(c3cc4c(cc3OC)N(C)C3C(O)(C(=O)OC)[C@H](OC(C)=O)[C@]5(CC)C=CCN6CC[C@]43[C@@H]65)C2)C1 (stereo partly drawn) [Compound 20a, 10′-thiomethylanhydrovinblastine]
- IC50 [1, 9]: 770 nM
- IC50 [2, 10]: 60 nM
- IC50 [3, 11]: 85 nM

SMILES: CCC1=C[C@@H]2CN(CCc3c([nH]c4ccccc34)[C@@](C=O)(c3cc4c(cc3OC)N(C)C3C(O)(C(=O)OC)[C@H](OC(C)=O)[C@]5(CC)C=CCN6CC[C@]43[C@@H]65)C2)C1 (stereo partly drawn) [Compound 8a]
- IC50 [1, 4]: > 10000 nM
- IC50 [2, 5]: 6300 nM
- IC50 [3, 6]: 7000 nM

SMILES: CCC1=C[C@@H]2CN(CCc3c([nH]c4ccccc34)[C@@](C(N)=O)(c3cc4c(cc3OC)N(C)C3C(O)(C(=O)OC)[C@H](OC(C)=O)[C@]5(CC)C=CCN6CC[C@]43[C@@H]65)C2)C1 (stereo partly drawn) [Compound 7a]
- IC50 [1, 4]: > 10000 nM
- IC50 [2, 5]: > 10000 nM
- IC50 [3, 6]: > 10000 nM

SMILES: CC[C@]1(O)C[C@@H]2CN(CCc3c([nH]c4ccc(Cl)cc34)[C@@](C(=O)OC)(c3cc4c(cc3OC)N(C)C3C(O)(C(=O)OC)[C@H](OC(C)=O)[C@]5(CC)C=CCN6CC[C@]43[C@@H]65)C2)C1 (stereo partly drawn) [Compound 18b, 10′-chlorovinblastine]
- IC50 [1, 15]: 720 nM
- IC50 [2, 16]: 6.2 nM
- IC50 [3, 17]: 7.6 nM

SMILES: CCC1=C[C@@H]2CN(CCc3c([nH]c4ccccc34)[C@@](C(=O)OC)(c3cc4c(cc3OC)N(C)[C@H]3[C@@](O)(C(=O)OC)[C@H](OC(C)=O)[C@]5(CC)C=CCN6CC[C@]43[C@@H]65)C2)C1 [Compound 4a, anhydrovinblastine, reference compound]
- IC50 ([1]; Table 1A, C16′-modified anhydrovinblastine analogues; read-out: IC50 (nM) HCT116/VM46): 600 nM
- IC50 ([1]; Table 2A, C10′-substituted anhydrovinblastines, single evaluations; read-out: IC50 (nM) HCT116/VM46): 600 nM
- IC50 ([2]; Table 1A, C16′-modified anhydrovinblastine analogues; read-out: IC50 (nM) L1210): 65 nM
- IC50 ([2]; Table 2A, C10′-substituted anhydrovinblastines, single evaluations; read-out: IC50 (nM) L1210): 65 nM
- IC50 ([3]; Table 1A, C16′-modified anhydrovinblastine analogues; read-out: IC50 (nM) HCT116): 75 nM
- IC50 ([3]; Table 2A, C10′-substituted anhydrovinblastines, single evaluations; read-out: IC50 (nM) HCT116): 75 nM
